Reference: ChEMBL document CHEMBL3885861, “Open TG-GATES”

Organism: Rattus norvegicus
Assay: Open TG-GATES - Regimen: Single
Type: toxicity, organism-based, Sprague-Dawley
Set-up: regimen Single, gender Male, age 6 weeks
Conditions: in vivo, ip, route intraperitoneal injection; for APTT / Bas / Eos / Fbg / Hb / Ht / Lym / MCH / MCHC / MCV / Mono / Neu / PT / Plat / RBC / Ret / WBC: tissue Blood; for KIDNEY_L / KIDNEY_R / KIDNEY_TOTAL: tissue Kidney; for LIVER: tissue Liver; for A/G / ALP / ALT / AST / BUN / CRE / Ca / Cl / DBIL / GLC / IP / K / LDH / Na / PL / RALB / TBIL / TC / TG / TP / gamma-GTP: tissue Plasma
[1] = 300 mg/kg, 3 h, dose level Middle
[2] = 300 mg/kg, 6 h, dose level Middle
[3] = 300 mg/kg, 9 h, dose level Middle
[4] = 300 mg/kg, 24 h, dose level Middle
[5] = 1000 mg/kg, 3 h, dose level High
[6] = 1000 mg/kg, 6 h, dose level High
[7] = 1000 mg/kg, 9 h, dose level High
[8] = 1000 mg/kg, 24 h, dose level High

## N[C@H]1C(O)O[C@H](CO)[C@@H](O)[C@@H]1O (some centres undefined) [GLUCOSAMINE]
[1]
  TERMINAL_BW: 188.6 g
  APTT: 17.5 s
  Bas: 0.4%
  Eos: 0.4%
  Fbg: 247.4 mg/dL
  Hb: 12.6 g/dL
  Ht: 38.9%
  Lym: 67%
  MCH: 21 pg
  MCHC: 32.3%
  MCV: 64.9 fL
  Mono: 4%
  Neu: 27%
  PT: 16.2 s
  Plat: 112.1 x10_4/uL
  RBC: 600.6 x10_4/ul
  Ret: 9.4%
  WBC: 96.7 x10_2/uL
  KIDNEY_L: 0.9 g
  KIDNEY_R: 0.9 g
  KIDNEY_TOTAL: 1.8 g
  LIVER: 8.4 g
  A/G: 0.9
  ALP: 1578.8 IU/L
  ALT: 43.4 IU/L
  AST: 82 IU/L
  BUN: 10.6 mg/dL
  CRE: 0.2 mg/dL
  Ca: 10.5 mg/dL
  Cl: 107.8 meq/L
  DBIL: 0.012 mg/dL
  GLC: 165.8 mg/dL
  IP: 8.9 mg/dL
  K: 4 meq/L
  LDH: 55.6 IU/L
  Na: 142.2 meq/L
  PL: 136.4 mg/dL
  RALB: 2.3 g/dL
  TBIL: 0.052 mg/dL
  TC: 76.6 mg/dL
  TG: 34.8 mg/dL
  TP: 5 g/dL
  gamma-GTP: 1 IU/L
[2]
  TERMINAL_BW: 188.8 g
  APTT: 20.1 s
  Bas: 0.2%
  Eos: 1%
  Fbg: 234.4 mg/dL
  Hb: 13.6 g/dL
  Ht: 41.5%
  Lym: 63%
  MCH: 21.3 pg
  MCHC: 32.7%
  MCV: 65.2 fL
  Mono: 2.6%
  Neu: 32.6%
  PT: 18.9 s
  Plat: 107.5 x10_4/uL
  RBC: 636.8 x10_4/ul
  Ret: 9%
  WBC: 50.8 x10_2/uL
  KIDNEY_L: 0.8 g
  KIDNEY_R: 0.8 g
  KIDNEY_TOTAL: 1.6 g
  LIVER: 8.4 g
  A/G: 0.9
  ALP: 1576.2 IU/L
  ALT: 145.8 IU/L
  AST: 213.4 IU/L
  BUN: 13.8 mg/dL
  CRE: 0.2 mg/dL
  Ca: 10.2 mg/dL
  Cl: 107.2 meq/L
  DBIL: 0.01 mg/dL
  GLC: 164.4 mg/dL
  IP: 9 mg/dL
  K: 3.7 meq/L
  LDH: 212.6 IU/L
  Na: 142.4 meq/L
  PL: 129.8 mg/dL
  RALB: 2.3 g/dL
  TBIL: 0.054 mg/dL
  TC: 70 mg/dL
  TG: 17.8 mg/dL
  TP: 4.9 g/dL
  gamma-GTP: 1 IU/L
[3]
  TERMINAL_BW: 183.2 g
  APTT: 18.5 s
  Bas: 0%
  Eos: 0.6%
  Fbg: 307.6 mg/dL
  Hb: 12.7 g/dL
  Ht: 39%
  Lym: 73%
  MCH: 21.1 pg
  MCHC: 32.6%
  MCV: 64.7 fL
  Mono: 1.8%
  Neu: 23.6%
  PT: 17.2 s
  Plat: 109.8 x10_4/uL
  RBC: 602.8 x10_4/ul
  Ret: 9.2%
  WBC: 55.1 x10_2/uL
  KIDNEY_L: 0.9 g
  KIDNEY_R: 0.9 g
  KIDNEY_TOTAL: 1.7 g
  LIVER: 7.3 g
  A/G: 0.9
  ALP: 1464 IU/L
  ALT: 40.6 IU/L
  AST: 84.4 IU/L
  BUN: 7.6 mg/dL
  CRE: 0.1 mg/dL
  Ca: 10.3 mg/dL
  Cl: 107.4 meq/L
  DBIL: 0.012 mg/dL
  GLC: 162.2 mg/dL
  IP: 9.9 mg/dL
  K: 3.8 meq/L
  LDH: 54.6 IU/L
  Na: 142 meq/L
  PL: 117.8 mg/dL
  RALB: 2.4 g/dL
  TBIL: 0.06 mg/dL
  TC: 63.4 mg/dL
  TG: 23.6 mg/dL
  TP: 5.2 g/dL
  gamma-GTP: 0.8 IU/L
[4]
  TERMINAL_BW: 190.9 g
  APTT: 19.9 s
  Bas: 0.6%
  Eos: 1.4%
  Fbg: 205.8 mg/dL
  Hb: 14.1 g/dL
  Ht: 43.4%
  Lym: 70%
  MCH: 20.9 pg
  MCHC: 32.5%
  MCV: 64.3 fL
  Mono: 3.8%
  Neu: 23%
  PT: 25.4 s
  Plat: 102.4 x10_4/uL
  RBC: 675.6 x10_4/ul
  Ret: 7.9%
  WBC: 79.5 x10_2/uL
  KIDNEY_L: 0.8 g
  KIDNEY_R: 0.9 g
  KIDNEY_TOTAL: 1.7 g
  LIVER: 8.1 g
  A/G: 0.9
  ALP: 2031.4 IU/L
  ALT: 214.6 IU/L
  AST: 341.6 IU/L
  BUN: 13.4 mg/dL
  CRE: 0.2 mg/dL
  Ca: 10.3 mg/dL
  Cl: 107 meq/L
  DBIL: 0.068 mg/dL
  GLC: 165.4 mg/dL
  IP: 9.1 mg/dL
  K: 4.3 meq/L
  LDH: 168 IU/L
  Na: 143.8 meq/L
  PL: 118.2 mg/dL
  RALB: 2.4 g/dL
  TBIL: 0.1 mg/dL
  TC: 57.2 mg/dL
  TG: 42 mg/dL
  TP: 5.2 g/dL
  gamma-GTP: 1 IU/L
[5]
  TERMINAL_BW: 188.7 g
  APTT: 21 s
  Bas: 0.2%
  Eos: 0.8%
  Fbg: 265 mg/dL
  Hb: 12.8 g/dL
  Ht: 39.4%
  Lym: 73.6%
  MCH: 21 pg
  MCHC: 32.4%
  MCV: 64.9 fL
  Mono: 3.4%
  Neu: 21.2%
  PT: 16.7 s
  Plat: 106.7 x10_4/uL
  RBC: 608 x10_4/ul
  Ret: 9.6%
  WBC: 92.4 x10_2/uL
  KIDNEY_L: 0.8 g
  KIDNEY_R: 0.8 g
  KIDNEY_TOTAL: 1.6 g
  LIVER: 8.9 g
  A/G: 0.9
  ALP: 1493 IU/L
  ALT: 50 IU/L
  AST: 92.6 IU/L
  BUN: 12 mg/dL
  CRE: 0.2 mg/dL
  Ca: 10.6 mg/dL
  Cl: 110 meq/L
  DBIL: 0.012 mg/dL
  GLC: 167.2 mg/dL
  IP: 7.1 mg/dL
  K: 3.9 meq/L
  LDH: 93.4 IU/L
  Na: 143.4 meq/L
  PL: 129.4 mg/dL
  RALB: 2.5 g/dL
  TBIL: 0.064 mg/dL
  TC: 71.4 mg/dL
  TG: 25 mg/dL
  TP: 5.2 g/dL
  gamma-GTP: 1 IU/L
[6]
  TERMINAL_BW: 187.1 g
  APTT: 18.1 s
  Bas: 0%
  Eos: 0.2%
  Fbg: 246.6 mg/dL
  Hb: 13.4 g/dL
  Ht: 41.5%
  Lym: 62.8%
  MCH: 21 pg
  MCHC: 32.3%
  MCV: 65.1 fL
  Mono: 1.4%
  Neu: 34.4%
  PT: 18.9 s
  Plat: 102.2 x10_4/uL
  RBC: 637.8 x10_4/ul
  Ret: 9%
  WBC: 60.4 x10_2/uL
  KIDNEY_L: 0.9 g
  KIDNEY_R: 0.8 g
  KIDNEY_TOTAL: 1.7 g
  LIVER: 8.4 g
  A/G: 0.9
  ALP: 1303.2 IU/L
  ALT: 131 IU/L
  AST: 226.6 IU/L
  BUN: 12.2 mg/dL
  CRE: 0.2 mg/dL
  Ca: 10.3 mg/dL
  Cl: 107.8 meq/L
  DBIL: 0.02 mg/dL
  GLC: 159.4 mg/dL
  IP: 8.2 mg/dL
  K: 3.7 meq/L
  LDH: 316.4 IU/L
  Na: 142.8 meq/L
  PL: 125.6 mg/dL
  RALB: 2.3 g/dL
  TBIL: 0.072 mg/dL
  TC: 68.8 mg/dL
  TG: 17.8 mg/dL
  TP: 5 g/dL
  gamma-GTP: 1 IU/L
[7]
  TERMINAL_BW: 182.7 g
  APTT: 18.9 s
  Bas: 0%
  Eos: 0.8%
  Fbg: 289.2 mg/dL
  Hb: 13.2 g/dL
  Ht: 40.3%
  Lym: 68%
  MCH: 21.1 pg
  MCHC: 32.7%
  MCV: 64.6 fL
  Mono: 2.2%
  Neu: 28.2%
  PT: 17.4 s
  Plat: 108.7 x10_4/uL
  RBC: 624.8 x10_4/ul
  Ret: 9.7%
  WBC: 63.8 x10_2/uL
  KIDNEY_L: 0.8 g
  KIDNEY_R: 0.8 g
  KIDNEY_TOTAL: 1.6 g
  LIVER: 7.5 g
  A/G: 0.9
  ALP: 1707.4 IU/L
  ALT: 72.2 IU/L
  AST: 136.6 IU/L
  BUN: 9.4 mg/dL
  CRE: 0.2 mg/dL
  Ca: 10.3 mg/dL
  Cl: 108.8 meq/L
  DBIL: 0.016 mg/dL
  GLC: 159.6 mg/dL
  IP: 9.9 mg/dL
  K: 3.9 meq/L
  LDH: 111.4 IU/L
  Na: 143.2 meq/L
  PL: 142.2 mg/dL
  RALB: 2.5 g/dL
  TBIL: 0.07 mg/dL
  TC: 79.2 mg/dL
  TG: 22 mg/dL
  TP: 5.4 g/dL
  gamma-GTP: 1 IU/L
[8]
  TERMINAL_BW: 192.2 g
  APTT: 23.1 s
  Bas: 0.4%
  Eos: 1.2%
  Fbg: 165.4 mg/dL
  Hb: 13.8 g/dL
  Ht: 42.5%
  Lym: 63.2%
  MCH: 21 pg
  MCHC: 32.5%
  MCV: 64.6 fL
  Mono: 4.6%
  Neu: 28.4%
  PT: 33.2 s
  Plat: 109 x10_4/uL
  RBC: 658 x10_4/ul
  Ret: 8.6%
  WBC: 78.4 x10_2/uL
  KIDNEY_L: 0.9 g
  KIDNEY_R: 0.9 g
  KIDNEY_TOTAL: 1.8 g
  LIVER: 8.1 g
  A/G: 0.9
  ALP: 2378 IU/L
  ALT: 313.8 IU/L
  AST: 571.6 IU/L
  BUN: 12.6 mg/dL
  CRE: 0.2 mg/dL
  Ca: 10.3 mg/dL
  Cl: 106.2 meq/L
  DBIL: 0.2 mg/dL
  GLC: 147.6 mg/dL
  IP: 9.3 mg/dL
  K: 4.2 meq/L
  LDH: 727.6 IU/L
  Na: 143.2 meq/L
  PL: 99.6 mg/dL
  RALB: 2.3 g/dL
  TBIL: 0.3 mg/dL
  TC: 51.6 mg/dL
  TG: 25.2 mg/dL
  TP: 4.9 g/dL
  gamma-GTP: 1.2 IU/L
